Assay results from patent US11066414B2, “Cot modulators and methods of use thereof” (Gilead Sciences, Inc., priority 2015, dated 2021).
Read-outs that look alike come from different tables or passages of the source.

Legend:
[1] = target: Human Cot (Homo sapiens (Human), UniProt P41279); test: High Throughput Cot Biochemical Assay
[2] = test system: TNFα; test: Cot Monocyte TNFα Cell Based Assay
[3] = IC50 HTRF, Cot HTRF (TR-FRET) biochemical assay
[4] = Homo sapiens, Monocyte, read-out: EC50 TNF, LPS-stimulated human monocytes, TNFα
[5] = read-out: IC50 HTRF, Cot HTRF (TR-FRET) biochemical assay
[6] = read-out: EC50 TNF, LPS-stimulated human monocytes, TNFα
[7] = IC50 HTRF, Cot HTRF (TR-FRET KinEASE) biochemical assay, 400 μM ATP
[8] = Homo sapiens, Monocyte, read-out: EC50 TNF, LPS-stimulated human monocytes, TNFα TR-FRET

Human Cot, sequence (P41279 30-397): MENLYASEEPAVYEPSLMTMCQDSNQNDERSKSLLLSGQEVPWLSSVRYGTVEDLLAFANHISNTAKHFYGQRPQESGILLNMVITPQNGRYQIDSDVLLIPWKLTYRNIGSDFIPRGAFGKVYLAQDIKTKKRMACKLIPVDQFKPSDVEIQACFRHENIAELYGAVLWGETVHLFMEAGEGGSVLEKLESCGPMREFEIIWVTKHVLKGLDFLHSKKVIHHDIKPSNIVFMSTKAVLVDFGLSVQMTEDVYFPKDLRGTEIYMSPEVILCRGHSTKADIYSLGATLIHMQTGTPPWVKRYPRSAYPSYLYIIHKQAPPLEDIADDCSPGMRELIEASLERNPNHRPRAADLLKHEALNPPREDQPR

| SMILES | IC50 [1, 3] | EC50 [2, 4] | other results |
| --- | --- | --- | --- |
| Cc1nc(F)ccc1[C@H](Nc1cc(Cl)c2ncc(C#N)c(N[C@H]3CCOC3(C)C)c2c1)c1cn(C2(C(F)F)CC2)nn1 [Example 516, 8-chloro-6-(((S)-(1-(1-(difluoromethyl)-cyclopropyl)-1H-1,2,3-triazol-4-yl)(6-fluoro-2-methylpyridin-3-yl)methyl)amino)-4-(((S)-2,2-dimethyltetrahydrofuran-3-yl)amino)quinoline-3-carbonitrile] | 2 nM | 34 nM |  |
| N#Cc1cnc2c(Cl)cc(N[C@H](c3c[nH]nn3)c3cncs3)cc2c1Nc1ccc(F)c(Cl)c1 [Example 277, (R)-B-chloro-4-((3-chloro-4-fluorophenyl)amino)-6-((thiazol-5-yl(1H-1,2,3-triazol-4-yl)methyl)amino)quinoline-3-carbonitrile] |  |  | IC50 [1, 5]: 7 nM; EC50 [2, 6]: 923 nM |
| Cc1nc(F)ccc1[C@H](Nc1cc(C#N)c2ncc(C#N)c(NCC(C)(C)CCl)c2c1)c1cn(C2(C(F)(F)F)CC2)nn1 [Example 637, (S)-4-((3-chloro-2,2-dimethylpropyl)amino)-6-(((6-fluoro-2-methylpyridin-3-yl)(1-(1-(trifluoromethyl)-cyclopropyl)-1H-1,2,3-triazol-4-yl)methyl)amino)-quinoline-3,8-dicarbonitrile] | 3 nM | 85 nM |  |
| Cn1ncc2c([C@H](Nc3cc(C#N)c4ncc(C#N)c(NCC(C)(C)C)c4c3)c3cn(C4(C(F)(F)F)CC4)nn3)cccc21 [Example 557, (S)-6-(((1-methyl-1H-indazol-4-yl)(1-(1-(trifluoro-methyl)cyclopropyl)-1H-1,2,3-triazol-4-yl)methyl)amino)-4-(neopentylamino)-quinoline-3,8-dicarbonitrile] | 5 nM | 117 nM |  |
| CC(C)(C)CNc1c(C#N)cnc2c(Br)cc(N[C@H](c3cn(C4CC4)nn3)c3cccc4c3C(=O)NC4)cc12 [Example 78, (S)-8-bromo-6-(((1-cyclopropyl-1H-1,2,3-triazol-4-yl)(3-oxoisoindolin-4-yl)methyl)amino)-4-(neopentylamino)quinoline-3-carbonitrile] | 3 nM | 332 nM |  |
| C[C@@H](CF)n1cc([C@@H](Nc2cc(C#N)c3ncc(C#N)c(NCC(C)(C)C)c3c2)c2cccc3c(=O)n(C)ccc23)nn1 [Example 877, 6-(((S)-(1-((S)-1-fluoropropan-2-yl)-1H-1,2,3-triazol-4-yl)(2-methyl-1-oxo-1,2-dihydroisoquinolin-5-yl)methyl)amino)-4-(neopentylamino)quinoline-3,8-dicarbonitrile] |  |  | IC50 [1, 7]: 2 nM; EC50 [2, 8]: 34 nM |
| CC(C)(C)ONc1c(C#N)cnc2c(C#N)cc(N[C@H](c3cn(C4CC4)nn3)c3cccc4ncsc34)cc12 [Example 456, (S)-6-((benzo[d]thiazol-7-yl(1-cyclopropyl-1H-1,2,3-triazol-4-yl)methyl)amino)-4-(tert-butoxyamino)quinoline-3,8-dicarbonitrile] | 51 nM | 1000 nM |  |
| Cc1nc(F)ccc1[C@H](Nc1cc(Cl)c2ncc(C#N)c(NCC(C)(C)C)c2c1)c1cn(C(C)(C)C2CC2)nn1 [Example 758, (S)-8-chloro-6-(((1-(2-cyclopropylpropan-2-yl)-1H-1,2,3-triazol-4-yl)(6-fluoro-2-methylpyridin-3-yl)methyl)amino)-4-(neopentylamino)quinoline-3-carbonitrile] | 4 nM | 50 nM |  |
| Cc1nc(F)ccc1[C@H](Nc1cc(C#N)c2ncc(C#N)c(NCC(C)(C)C)c2c1)c1cn(C2(C)COC2)nn1 [Example 852, (S)-6-(((6-fluoro-2-methylpyridin-3-yl)(1-(3-methyloxetan-3-yl)-1H-1,2,3-triazol-4-yl)methyl)amino)-4-(neopentylamino)quinoline-3,8-dicarbonitrile] |  |  | IC50 [1, 7]: 2 nM; EC50 [2, 8]: 58 nM |
| N#Cc1cnc2c(Cl)cc(N[C@@H](c3cocn3)c3cn(C4CCN(C5COC5)CC4)nn3)cc2c1Nc1ccc(Cl)c(Cl)c1F [Example 242, (S)-8-chloro-4-((3,4-dichloro-2-fluorophenyl)amino)-6-((o)(azol-4-yl(1-(1-(oxetan-3-yl)piperidin-4-yl)-1H-1,2,3-triazol-4-yl)methyl)amino)quinoline-3-carbonitrile] |  |  | IC50 [1, 5]: 143 nM; EC50 [2, 6]: 5800 nM |
| Cc1nc(F)ccc1[C@H](Nc1cc(Cl)c2ncc(C#N)c(NCC(C)(C)C)c2c1)c1nnn(C2CC2)c1C1CC1 [Example 946, (S)-8-chloro-6-(((1,5-dicyclopropyl-1H-1,2,3-triazol-4-yl)(6-fluoro-2-methylpyridin-3-yl)methyl)amino)-4-(neopentylamino)quinoline-3-carbonitrile] |  |  | IC50 [1, 7]: 5 nM; EC50 [2, 8]: 153 nM |
| CC(C)n1ccc2c([C@H](Nc3cc(Cl)c4ncc(C#N)c(NCC(C)(C)C)c4c3)c3cn(C45CC(C4)C5)nn3)cccc2c1=O [Example 772, (S)-6-(((1-(bicyclo[1.1.1]pentan-1-yl)-1H-1,2,3-triazol-4-yl)(2-isopropyl-1-oxo-1,2-dihydroisoquinolin-5-yl)methyl)amino)-8-chloro-4-(neopentylamino)quinoline-3-carbonitrile] | 2 nM | 33 nM |  |
| Cc1nc(F)ccc1[C@H](Nc1cc(C#N)c2ncc(C#N)c(NCC(C)(C)C)c2c1)c1cn(C2CC23CC3)nn1 (stereo partly drawn) [Example 872, 6-(((1S)-(6-fluoro-2-methylpyridin-3-yl)(1-(spiro[2.2]pentan-1-yl)-1H-1,2,3-triazol-4-yl)methyl)amino)-4-(neopentylamino)quinoline-3,8-dicarbonitrile] |  |  | IC50 [1, 7]: 1 nM; EC50 [2, 8]: 15 nM |

The next lines start with results.

| IC50 [1, 3] | EC50 [2, 4] | SMILES | other results |
| --- | --- | --- | --- |
| 5 nM | 194 nM | CN(C)CCn1cc([C@@H](Nc2cc(Cl)c3ncc(C#N)c(Nc4ccc(F)c(Cl)c4)c3c2)c2cscn2)nn1 [Example 355, (S)-8-chloro-4-((3-chloro-4-fluorophenyl)amino)-6-(((1-(2-(dimethylamino)ethyl)-1H-1,2,3-triazol-4-yl)(thiazol-4-yl)methyl)-amino)quinoline-3-carbonitrile] |  |
| 4 nM | 257 nM | N#Cc1cnc2c(Cl)cc(N[C@@H](c3cscn3)c3cn(C4COC4)nn3)cc2c1Nc1ccc(F)c(Cl)c1 [Example 363, (S)-8-chloro-4-((3-chloro-4-fluorophenyl)amino)-6-(((1-(oxetan-3-yl)-1H-1,2,3-triazol-4-yl)(thiazol-4-yl)methyl)amino)quinoline-3-carbonitrile] |  |
| 4 nM | 272 nM | Cc1nc(Cl)ccc1[C@H](Nc1cc(Cl)c2ncc(C#N)c(Nc3ccc(F)c(Cl)c3)c2c1)c1cn(CCO)nn1 [Example 328, (S)-8-chloro-6-(((6-chloro-2-methylpyridin-3-yl)(1-(2-hydroxyethyl)-1H-1,2,3-triazol-4-yl)methyl)amino)-4-((3-chloro-4-fluorophenyl)amino)-quinoline-3-carbonitrile] |  |
| 11 nM | 328 nM | CCN1CCC(n2cc([C@@H](Nc3cc(Cl)c4ncc(C#N)c(Nc5ccc(F)c(Cl)c5)c4c3)c3sccc3Cl)nn2)CC1 [Example 389, (R)-8-chloro-4-((3-chloro-4-fluoro-phenyl)amino)-6-(((3-chlorothiophen-2-yl)(1-(1-ethylpiperidin-4-yl)-1H-1,2,3-triazol-4-yl)methyl)amino)-quinoline-3-carbonitrile] |  |
| 7 nM | 429 nM | [2H][C@](Nc1cc(Cl)c2ncc(C#N)c(Nc3cnc(F)c(F)c3)c2c1)(c1cccnc1)c1cn(-c2ccccc2)nn1 [Example 162, (S)-8-chloro-4-((5,6-difluoropyridin-3-yl)amino)-6-(((1-phenyl-1H-1,2,3-triazol-4-yl)(pyridin-3-yl)methyl-d)amino)quinoline-3-carbonitrile] |  |
| 2 nM | 76 nM | [2H]C([2H])([2H])C([2H])([2H])[C@@H](Nc1c(C#N)cnc2c(Cl)cc(N[C@@]([2H])(c3ccc(F)nc3)c3cn(C4CC4)nn3)cc12)c1ccccc1 [Example 106, 8-chloro-6-(((S)-(1-cyclopropyl-1H-1,2,3-triazol-4-yl)(6-fluoropyridin-3-yl)methyl-d)amino)-4-(((R)-1-phenylpropyl-2,2,3,3,3-d5)amino)-quinoline-3-carbonitrile] |  |
| 3 nM | 142 nM | [2H][C@](Nc1cc(C#N)c2ncc(C#N)c(N[C@H](CC#N)c3ccccc3)c2c1)(c1ccc(F)nc1)c1cn(C2CC2)nn1 [Example 100, 4-(((R)-2-cyano-1-phenylethyl)amino)-6-(((S)-(1-cyclopropyl-1H-1,2,3-triazol-4-yl)(6-fluoropyridin-3-yl)methyl-d)amino)quinoline-3,8-dicarbonitrile] |  |
| 3 nM | 27 nM | Cn1ccc2c([C@H](Nc3cc(Cl)c4ncc(C#N)c(NCC(C)(C)C)c4c3)c3cn(C4(CF)CC4)nn3)cccc2c1=O [Example 775, (S)-8-chloro-6-(((1-(1-(fluoromethyl)cyclopropyl)-1H-1,2,3-triazol-4-yl)(2-methyl-1-oxo-1,2-dihydroisoquinolin-5-yl)methyl)amino)-4-(neopentylamino)quinoline-3-carbonitrile] |  |
| 2 nM | 26 nM | CC(C)(C)CNc1c(C#N)cnc2c(C#N)cc(N[C@H](c3cn(C4(C(F)F)CC4)nn3)c3cccc4ccncc34)cc12 [Example 552, (S)-6-(((1-(1-(difluoromethyl)cyclopropyl)-1H-1,2,3-triazol-4-yl)(isoquinolin-8-yl)methyl)-amino)-4-(neopentylamino)quinoline-3,8-dicarbonitrile] |  |
| 2 nM | 190 nM | CC(C)(C)CNc1c(C#N)cnc2c(Cl)cc(N[C@H](c3cn(C4(C(N)=O)CCC4)nn3)c3cccc4ncccc34)cc12 [Example 566, (S)-1-(4-(((8-chloro-3-cyano-4-(neopentyl-amino)quinolin-6-yl)amino)(quinolin-5-yl)methyl)-1H-1,2,3-triazol-1-yl)cyclobutane-1-carboxamide] |  |
